Source: patent publication US20240334934A1, “FUNGICIDE MIXTURE” (priority 2021, published 2024)
Read-outs that look alike come from different tables or passages of the source.

Assays:
Puccinia triticina = test: Greenhouse test, wheat, preventative; format: in vivo; conditions: 2 days preventative, EC50 formulation
Method: (§1) Purified Cyclothiazomycin C (CtmC) was formulated as an EC50 formulation. The formulation was diluted in water at rates of 100 ppm and 50 ppm of CtmC. Plants were treated with 400 L/ha of the diluted product supplemented with an adjuvant to improve sticking and spreading, resulting in a treatment of 40 g/ha and 20 g/ha of CtmC, respectively.
Puccinia triticina (also known as recondata, Brown rust on wheat). 2-week old wheat plants cv. Arina are sprayed in a spray chamber with the formulated test compound diluted in water. […] After an incubation period of 1 day at 20° C. and 95% rh, the inoculated test plants are kept at 20° C./18° C. (day/night) and 60% rh in a greenhouse. The percentage leaf area covered by disease is assessed when an appropriate level of disease appears on untreated check plants (12-14 days after application).

Botrytis cinerea = test: Efficacy of purified CtmC in-vitro, microtiter plate growth inhibition; format: cell-based; conditions: rate 10 ppm; 72 hrs at 24° C.
Method: (§2) CtmC was dissolved in DMSO (Dimethylsulfoxid) to a final concentration of 1000 ppm to create a stock solution. A second dilutions of 1:10 was made in water+0.025% Tween 20. From this second dilution 10 μl are dispensed into a 96-well plate. To each well, 90 μl of medium with fungal spores are added and mixed, resulting in final CtmC concentrations of 10 ppm. All wells containing CtmC also contain DMSO (1%) and Tween 20 (0.0025%).
(§3) Botrytis cinerea (gray mould): Conidia of the fungus from cryogenic storage were directly mixed into nutrient broth (PDB potato dextrose broth). After placing a solution of the test compounds into a microtiter plate (96-well format) the nutrient broth containing the fungal spores was added.

[1] = tested on: Fusarium sporotrichioides K7901; format: cell-based; conditions: CtmC 10 ppm
Mycosphaerella arachidis [2] = test: Efficacy of purified CtmC in-vitro, microtiter plate growth inhibition; format: cell-based; conditions: rate 10 ppm; approximately 5-6 days at 24° C.
Method: as §2
Mycosphaerella arachidis (Brown leaf spot of groundnut): Conidia of the fungus from cryogenic storage were directly mixed into nutrient broth (PDB potato dextrose broth). After placing a solution of the test compounds into a microtiter plate (96-well format) the nutrient broth containing the fungal spores was added. The test plates were incubated at 24° C. and the inhibition of growth was determined photometrically after approximately 5-6 days at 620 nm.

Gibberella zeae K6102 = format: cell-based; conditions: CtmC 10 ppm
Phakopsora pachyrhizi = test: Leaf disc assay, soybean leaf disks, preventive; format: in vivo; conditions: rate 20 ppm, approx. 12 dpi
Method: A CtmC stock was generated at 1000 ppm in DMSO, then Diluted 1:50 in water+Tween 20 at 0.025% resulting in a 20 ppm solution.
Phakopsora pachyrhizi (Asian Soybean rust): Soybean leaf disks are placed on agar in multiwell plates (24-well format) and sprayed with test solutions. After drying, the leaf disks are inoculated with a spore suspension of the fungus. After appropriate incubation the activity of a compound is assessed approx. 12 dpi (days after inoculation) as preventive fungicidal activity

Tilletia tritici K5212 = test: Efficacy of purified CtmC alone in-vitro, 96 well plate, OD 620 nm; format: cell-based; conditions: CtmC 10 ppm
Microdochium nivale = test: Efficacy of mixtures of streptimidone and CtmC, liquid culture in PDB, optical density 620 nm; format: cell-based; conditions: read-out: % Efficacy
Zymoseptoria tritici = test: Efficacy of purified CtmC in-vitro, microtiter plate growth inhibition; format: cell-based; conditions: rate 10 ppm; 72 hrs at 24° C.
Method: as §2
as §3, with “Zymoseptoria tritici (Septoria leaf blotch):” for “Botrytis cinerea (gray mould):”

Gibberella zeae K6934 = format: cell-based; conditions: CtmC 10 ppm
Monographella nivalis = test: Efficacy of purified CtmC in-vitro, microtiter plate growth inhibition; format: cell-based; conditions: rate 10 ppm; 72 hrs at 24° C.
Method: as §2
as §3, with “Monographella nivalis (snow mould, foot rot of cereals):” for “Botrytis cinerea (gray mould):”

genus Bacillus = conditions: statement of WO2015191789, Table 6; cited from earlier work
Mycosphaerella arachidis [3] = test: Greenhouse test, peanut (groundnut), preventative; format: in vivo; conditions: 1 day preventative, EC50 formulation
Method: as §1
Mycosphaerella arachidis peanut/preventative (Brown leaf spot on groundnut) 3-week old peanut plants cv. Georgia Green are sprayed in a spray chamber with the formulated test compound diluted in water. The test plants are inoculated by spraying them with a spore suspension on their lower leaf surface one day after application. After an incubation period of 4 days under a plastic hood at 23° C. and 100% rh, the inoculated test plants are kept at 23° C./20° C. (day/night) and 70% rh in a greenhouse. The percentage leaf area covered by disease is assessed when an appropriate level of disease appears on untreated check plants (12-14 days after application).

[4] = tested on: Fusarium virguliforme isolate 1; test: Effect of Tween 20 on efficacy of purified CtmC, EC50; format: cell-based
Text: (§4) This is contrary to our results. In order to eliminate the possibility that the fungicidal effect that we observe was down to the presence of Tween 20 we carried out some experiments like those in Example 3 but with various levels of Tween 20, including none.
(§5) The experiment at outlined in Example 3 was repeated to evaluate the EC50 values for CtmC control on Fusarium virguliforme in presence of 4 different rates of Tween20: 0% (absence of Tween 20), 0.0025%, 0.0050% […] and 0.0100%. The plate layout was identical to Example 7, except that the plates were multiplied 4 times to accommodate the different Tween 20 concentrations in the assay plate. All other experimental conditions were kept identical. Fusarium isolates were tested at 25′000 sp/ml.

[5] = tested on: Fusarium virguliforme isolate 2; test: as above; format: cell-based
Text: as §4, §5

[6] = tested on: a variety of fungal strains; conditions: statement of WO2015191789, cited from earlier work

For `C=C1NC(=O)CNC(=O)[C@H](CCCCN)NC(=O)[C@@]2(C)NC(=O)/C(=C/C)NC(=O)[C@H]3CSC(=N3)[C@@H](CC(N)=O)CC(=O)c3ccc(nc3[C@@H](C)NC(=O)[C@@H]3CCCN3C1=O)-c1nc(cs1)C1=N[C@H](CS1)C(=O)NC(=C)c1nc(cs1)-c1nc(cs1)C1=N[C@@H](CS1)C(=O)N[C@@H](C(=O)O)CS2` [CtmC, cyclothiazomycin C], the “efficacy 20 g/ha (%)” value (Puccinia triticina; 20 g/ha) was 81%, the “efficacy 40 g/ha (%)” value (Puccinia triticina; 40 g/ha) was 81% and the “control of fungal growth (%)” value (Botrytis cinerea) was 90%. For the same compound, the “efficacy (%)” value [1] was 71%, the “optical density at 620 nm” value ([1]; blank 0.052, untreated 0.666) was 0.231 and the “control of fungal growth (%)” value (Mycosphaerella arachidis [2]) was 100%. For the same compound, the “efficacy (%)” value (Gibberella zeae K6102) was 52%, the “optical density at 620 nm” value (Gibberella zeae K6102; blank 0.044, untreated 0.733) was 0.377 and the “control of fungal growth (%)” value (Phakopsora pachyrhizi) was 50%. For the same compound, the “efficacy (%)” value (Tilletia tritici K5212) was 96%, the “optical density at 620 nm” value (Tilletia tritici K5212; blank 0.046, untreated 0.451) was 0.062 and the Emax at 0.0333 ppm (Microdochium nivale) was 19%. The Emax at 0.1 ppm (Microdochium nivale) was 42%, the “control of fungal growth (%)” value (Zymoseptoria tritici) was 90% and the “efficacy (%)” value (Gibberella zeae K6934) was 48%. For the same compound, the “optical density at 620 nm” value (Gibberella zeae K6934; blank 0.052, untreated 0.641) was 0.361, the “control of fungal growth (%)” value (Monographella nivalis) was 100% and the inhibitory activity (genus Bacillus) was “greatest inhibitory activity”. The “efficacy 20 g/ha (%)” value (Mycosphaerella arachidis [3]; 20 g/ha) was 56%, the “efficacy 40 g/ha (%)” value (Mycosphaerella arachidis [3]; 40 g/ha) was 65% and the “EC50 (ppm)” value ([4]; Tween 20 0%) was 1.422 ppm. For the same compound, the “EC50 (ppm)” value ([4]; Tween 20 0.0025%) was 1.053 ppm, the “EC50 (ppm)” value ([4]; Tween 20 0.0050%) was 0.8103 ppm and the “EC50 (ppm)” value ([4]; Tween 20 0.0100%) was 1.436 ppm. The “EC50 (ppm)” value ([5]; Tween 20 0%) was 1.098 ppm, the “EC50 (ppm)” value ([5]; Tween 20 0.0025%) was 0.889 ppm and the “EC50 (ppm)” value ([5]; Tween 20 0.0050%) was 0.7844 ppm. The “EC50 (ppm)” value ([5]; Tween 20 0.0100%) was 1.035 ppm, the “growth inhibitory action toward a variety of fungal strains” value ([6]; listed as Cyclothiazomycin C) was “no fungal inhibitory action” and the “growth inhibitory action toward a variety of fungal strains” value ([6]; listed as cyclothiazomycin C) was “none was observed”.
